Experimental data reported in patent publication US20250163104A1, “MACROCYCLIC IMMUNOMODULATORS” (priority 2021, published 2025).
Where a SMILES comes first, the peptide text is derived from it. Bridges are numbered along the chain shown (N, C = ends). [ ]: non-standard residue; d: D form. The star is where a group is joined. ξ: configuration not given here. Phe(4-COOH) = N[C@@H](Cc1ccc(C(=O)O)cc1)C(=O)O; Bip = N[C@@H](Cc1ccc(-c2ccccc2)cc1)C(=O)O; Phe(3-Me) = Cc1cccc(C[C@H](N)C(=O)O)c1; NMehPhe = CN[C@@H](CCc1ccccc1)C(=O)O; Val(3-OH) = CC(C)(O)[C@H](N)C(=O)O; Ala(cPr) = N[C@@H](CC1CC1)C(=O)O; 4Pal = N[C@@H](Cc1ccncc1)C(=O)O; Cha = N[C@@H](CC1CCCCC1)C(=O)O; Cit = NC(=O)NCCC[C@H](N)C(=O)O; Ile(3ξ) = CCC(C)[C@H](N)C(=O)O; Thr(3ξ) = CC(O)[C@H](N)C(=O)O; Dap(Me) = CNC[C@H](N)C(=O)O; Carboxymethyl = O=C(O)C*; Nle = CCCC[C@H](N)C(=O)O; Orn = NCCC[C@H](N)C(=O)O; Pra = C#CC[C@H](N)C(=O)O; Dab = NCC[C@H](N)C(=O)O; Dap = NC[C@H](N)C(=O)O; Piv = CC(C)(C)C(=O)*; Propargyl = C#CC*

Molecular target: T1, human PD-1 / PD-L1-Ig binding on Jurkat cell line over-expressing human PD-1 (Jurkat-PD-1) (Homo sapiens, UniProt Q15116)
T1 construct: expressed in transfected cells; host or cells: Jurkat
T1 sequence (Q15116 25-288): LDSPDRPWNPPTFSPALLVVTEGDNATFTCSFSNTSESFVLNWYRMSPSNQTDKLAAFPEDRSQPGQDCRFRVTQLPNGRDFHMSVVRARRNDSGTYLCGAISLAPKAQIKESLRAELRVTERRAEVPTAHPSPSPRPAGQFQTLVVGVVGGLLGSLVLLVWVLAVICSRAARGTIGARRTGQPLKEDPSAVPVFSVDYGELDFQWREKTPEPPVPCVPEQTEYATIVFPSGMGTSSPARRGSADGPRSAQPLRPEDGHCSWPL
Test: Jurkat-PD-1 Cell Binding High-Content Screening Assay (CBA)
Type: cell-based
Conditions: Jurkat HPD1_PDL1 IC50, Jurkat-PD-1 cells, PE-labeled PD-L1-Ig 20 nM final
Outline: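 Compounds were preincubated with Jurkat-hPD-1 cells in DMEM plus 10% fetal calf serum for 2 h at 37° C. Phycoerythrin-labeled PD-L1-Ig (20 nM final) was then added for 1 hour. Cells were fixed in 4% paraformaldehyde with Hoechst 33342, and bound fluorescence was quantified by high-content imaging.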

`CC(C)C[C@H]1NC(=O)[C@H](CCCN)NC(=O)[C@H](CCC(=O)O)NC(=O)[C@H](Cc2ccc(-c3ccccc3)cc2)NC(=O)[C@H](C(C)C)NC(=O)[C@H](Cc2c[nH]c3ccccc23)NC(=O)[C@H](CC(=O)O)NC(=O)[C@H](Cc2ccc(C(=O)O)cc2)NC(=O)[C@H](Cc2ccncc2)NC(=O)CSC[C@@H](C(=O)N[C@@H](C)C(N)=O)NC(=O)[C@H]([C@@H](C)O)NC(=O)[C@H](C(C)C)NC(=O)[C@H](CC2CCCCC2)NC(=O)[C@H](Cc2c[nH]cn2)NC1=O` [Compound 1597] showed an IC50 of 20.2 nM.

Same assay, conditions: Jurkat-PD-1 cells, PE-labeled PD-L1-Ig 20 nM final; read-out: Jurkat HPD1_PDL1 IC50

Point of comparison: `CC(C)C[C@H]1NC(=O)[C@H](CCCN)NC(=O)[C@H](CCC(=O)O)NC(=O)[C@H](Cc2ccc(-c3ccccc3)cc2)NC(=O)[C@H](C(C)C)NC(=O)[C@H](Cc2ccccc2F)NC(=O)[C@H](CC(=O)O)NC(=O)[C@H](Cc2ccc(OCC(=O)O)cc2)NC(=O)[C@H](CN)NC(=O)CSC[C@@H](C(=O)N[C@@H](C)C(N)=O)NC(=O)[C@H]([C@@H](C)O)NC(=O)[C@H](C(C)C)NC(=O)[C@H](CC2CCCCC2)NC(=O)[C@H](CCN)NC1=O` [Compound 2150], IC50 7.5 nM. Against it:
- CCC(C)[C@@H]1NC(=O)[C@H](Cc2ccc(-c3ccccc3)cc2)NC(=O)[C@H](C(C)C)NC(=O)[C@H](Cc2c[nH]c3ccccc23)NC(=O)[C@H](CC(=O)O)NC(=O)[C@H](Cc2ccc(OCC(=O)O)cc2)NC(=O)[C@H](CNC)NC(=O)CSC[C@@H](C(=O)N[C@@H](C)C(N)=O)NC(=O)[C@H](C(C)O)NC(=O)[C@H](C(C)C)NC(=O)[C@H](CC(C)C)NC(=O)[C@H](CCN)NC(=O)[C@@H](CC(C)C)NC(=O)[C@H](CCCN)NC1=O (stereo partly drawn) [Compound 2512] ({CH2CO}-[Dap(Me)]Y(Carboxymethyl)DWV[Bip][Ile(3ξ)][Orn][dL][Dab]LV[Thr(3ξ)]CA-NH2; thioether N-14) — within 1.5-fold, 10.8 nM
- CC(C)C[C@H]1NC(=O)[C@H](CCCN)NC(=O)[C@H](CCCNC(N)=O)NC(=O)[C@H](Cc2ccc(-c3ccccc3)cc2)NC(=O)[C@H](CC2CC2)NC(=O)[C@H](Cc2c[nH]c3ccccc23)NC(=O)[C@H](CC(=O)O)NC(=O)[C@H](Cc2ccc(OCC(=O)O)cc2)NC(=O)[C@H](CN)NC(=O)CSC[C@@H](C(=O)N[C@@H](C)C(N)=O)NC(=O)[C@H]([C@@H](C)O)NC(=O)[C@H](C(C)C)NC(=O)[C@H](CC2CCCCC2)NC(=O)[C@H](CCN)NC1=O [Compound 1354] ({CH2CO}-[Dap]Y(Carboxymethyl)DW[Ala(cPr)][Bip][Cit][Orn][dL][Dab][Cha]VTCA-NH2; thioether N-14) — 1.9-fold higher, 13.9 nM
- CC(C)C[C@@H]1NC(=O)[C@H](Cc2c[nH]c3ccccc23)NC(=O)[C@H](CC(=O)O)NC(=O)[C@H](Cc2ccc(OCC(=O)O)cc2)NC(=O)[C@H](Cc2ccncc2)NC(=O)CSC[C@@H](C(=O)NCC(N)=O)NC(=O)[C@H](CO)NC(=O)[C@H](C(C)C)NC(=O)[C@H](CC2CCCCC2)NC(=O)[C@H](CCN)NC(=O)[C@@H](CC(C)C)NC(=O)[C@H](CCCN)NC(=O)[C@H](C(C)C)NC(=O)[C@H](Cc2ccc(-c3ccccc3)cc2)NC1=O [Compound 1402] ({CH2CO}-[4Pal]Y(Carboxymethyl)DWL[Bip]V[Orn][dL][Dab][Cha]VSCG-NH2; thioether N-14) — within 1.5-fold, 9.9 nM
- CC(C)C[C@H]1NC(=O)[C@H](CCCN)NC(=O)[C@H](CCC(=O)O)NC(=O)[C@H](Cc2ccc(-c3ccccc3)cc2)NC(=O)[C@H](C(C)C)NC(=O)[C@H](Cc2c[nH]c3ccccc23)NC(=O)[C@H](CC(=O)O)NC(=O)[C@H](Cc2ccc(C#N)cc2)NC(=O)[C@H](Cc2ccncc2)NC(=O)CSC[C@@H](C(=O)N[C@@H](C)C(N)=O)NC(=O)[C@H]([C@@H](C)O)NC(=O)[C@H](C(C)C)NC(=O)[C@H](CC2CCCCC2)NC(=O)[C@H](CCN)NC1=O [Compound 2189] — 4.3-fold higher, 32.2 nM
- CC(C)C[C@H]1NC(=O)[C@H](CCCN)NC(=O)[C@H](C(C)C)NC(=O)[C@H](Cc2ccc(-c3ccccc3)cc2)NC(=O)[C@H](C(C)C)NC(=O)[C@H](Cc2c[nH]c3ccccc23)NC(=O)[C@H](CC(=O)O)NC(=O)[C@H](Cc2ccc(OCC(=O)O)cc2)NC(=O)[C@H](CCc2ccccc2)N(C)C(=O)CSC[C@@H](C(=O)N[C@@H](C)C(N)=O)NC(=O)[C@H](CO)NC(=O)[C@H](C(C)C)NC(=O)[C@H](CC2CCCCC2)NC(=O)[C@H](CCN)NC1=O [Compound 2516] ({CH2CO}-[NMehPhe]Y(Carboxymethyl)DWV[Bip]V[Orn][dL][Dab][Cha]VSCA-NH2; thioether N-14) — within 1.5-fold, 10 nM
- Cc1cccc(C[C@@H]2NC(=O)[C@H](CC(=O)O)NC(=O)[C@H](Cc3ccc(OCC(=O)O)cc3)NC(=O)[C@H](CN)NC(=O)CSC[C@@H](C(=O)N[C@@H](C)C(=O)N[C@@H](CCC(=O)O)C(N)=O)NC(=O)[C@H]([C@@H](C)O)NC(=O)[C@H](C(C)C)NC(=O)[C@H](CC3CCCCC3)NC(=O)[C@H](CCN)NC(=O)[C@@H](CC(C)C)NC(=O)[C@H](CCCN)NC(=O)[C@H](CCCNC(N)=O)NC(=O)[C@H](Cc3ccc(-c4ccccc4)cc3)NC(=O)[C@H](C(C)C)NC2=O)c1 [Compound 1297] ({CH2CO}-[Dap]Y(Carboxymethyl)D[Phe(3-Me)]V[Bip][Cit][Orn][dL][Dab][Cha]VTCAE-NH2; thioether N-14) — within 1.5-fold, 9.4 nM
- CC[C@H](C)[C@@H]1NC(=O)[C@H](Cc2ccc(-c3ccccc3)cc2)NC(=O)[C@H](C(C)C)NC(=O)[C@H](Cc2cccc(C)c2)NC(=O)[C@H](CC(=O)O)NC(=O)[C@H](Cc2ccc(C(=O)O)cc2)NC(=O)[C@H](Cc2ccncc2)NC(=O)CSC[C@@H](C(=O)N[C@@H](CCN)C(N)=O)NC(=O)[C@H]([C@@H](C)O)NC(=O)[C@H](C(C)C)NC(=O)[C@H](CC2CCCCC2)NC(=O)[C@H](CCN)NC(=O)[C@@H](CC(C)C)NC(=O)[C@H](CCCN)NC1=O [Compound 2007] — 3.2-fold higher, 24.3 nM
- C#CCOc1ccc(C[C@@H]2NC(=O)[C@H](C(C)C)NC(=O)[C@H](CC3CCCCC3)NC(=O)[C@H](CCN)NC(=O)[C@@H](CC(C)C)NC(=O)[C@H](CCCN)NC(=O)[C@H](Cc3ccc(OCC(=O)O)cc3)NC(=O)[C@H](Cc3ccc(-c4ccccc4)cc3)NC(=O)[C@H](Cc3ccc(OCC(=O)O)cc3)NC(=O)[C@H](Cc3cccc(C)c3)NC(=O)[C@H](CC(=O)O)NC(=O)[C@H](Cc3ccc(OCC(=O)O)cc3)NC(=O)[C@H](Cc3cnc[nH]3)NC(=O)CSC[C@@H](C(=O)N[C@@H](CCN)C(N)=O)NC2=O)cc1 [Compound 1813] ({CH2CO}-HY(Carboxymethyl)D[Phe(3-Me)]Y(Carboxymethyl)[Bip]Y(Carboxymethyl)[Orn][dL][Dab][Cha]VY(Propargyl)C[Dab]-NH2; thioether N-14) — 11-fold lower, 0.7 nM
- CCCC[C@@H]1NC(=O)[C@H](CC(N)=O)NC(=O)[C@@H](CC(C)C)NC(=O)[C@H](CN)NC(=O)[C@H](C(C)C)NC(=O)[C@H](Cc2ccc(-c3ccccc3)cc2)NC(=O)[C@H](CC(C)C)NC(=O)[C@H](Cc2c[nH]c3ccccc23)NC(=O)[C@H](CC(=O)O)NC(=O)[C@H](Cc2ccc(OCC(=O)O)cc2)NC(=O)[C@H](CN)NC(=O)CSC[C@@H](C(=O)NCC(N)=O)NC(=O)[C@H](CO)NC(=O)[C@H](C(C)C)NC1=O [Compound 1399] ({CH2CO}-[Dap]Y(Carboxymethyl)DWL[Bip]V[Dap][dL]N[Nle]VSCG-NH2; thioether N-14) — 2.1-fold higher, 16.1 nM
- Cc1cccc(C[C@@H]2NC(=O)[C@H](CC(=O)O)NC(=O)[C@H](Cc3ccc(OCC(=O)O)cc3)NC(=O)[C@H](CN)NC(=O)CSC[C@@H](C(=O)N[C@@H](CCNC(=O)C(C)(C)C)C(N)=O)NC(=O)[C@H]([C@@H](C)O)NC(=O)[C@H](C(C)C)NC(=O)[C@H](CC3CCCCC3)NC(=O)[C@H](CCN)NC(=O)[C@@H](CC(C)C)NC(=O)[C@H](CCN)NC(=O)[C@H](Cc3ccc(OCC(=O)O)cc3)NC(=O)[C@H](Cc3ccc(-c4ccccc4)cc3)NC(=O)[C@H](Cc3ccc(OCC(=O)O)cc3)NC2=O)c1 [Compound 2061] ({CH2CO}-[Dap]Y(Carboxymethyl)D[Phe(3-Me)]Y(Carboxymethyl)[Bip]Y(Carboxymethyl)[Dab][dL][Dab][Cha]VTC[Dab](Piv)-NH2; thioether N-14) — 3.1-fold higher, 23.6 nM
- CCCC[C@@H]1NC(=O)[C@H](CCN)NC(=O)[C@@H](CC(C)C)NC(=O)[C@H](CCCN)NC(=O)[C@H](C(C)C)NC(=O)[C@H](Cc2ccc(-c3ccccc3)cc2)NC(=O)[C@H](C(C)C)NC(=O)[C@H](Cc2cccc(C)c2)NC(=O)[C@H](CC(=O)O)NC(=O)[C@H](Cc2ccc(OCC(=O)O)cc2)NC(=O)[C@H](Cc2ccncc2)NC(=O)CSC[C@@H](C(=O)N[C@@H](C)C(N)=O)NC(=O)[C@H]([C@@H](C)O)NC(=O)[C@H](C(C)C)NC1=O [Compound 1199] ({CH2CO}-[4Pal]Y(Carboxymethyl)D[Phe(3-Me)]V[Bip]V[Orn][dL][Dab][Nle]VTCA-NH2; thioether N-14) — 1.8-fold lower, 4.1 nM
- C#CC[C@H](NC(=O)[C@H](CCN)NC(=O)[C@@H]1CSCC(=O)N[C@@H](CN)C(=O)N[C@@H](Cc2ccc(C(=O)O)cc2)C(=O)N[C@@H](CC(=O)O)C(=O)N[C@@H](Cc2cccc(C)c2)C(=O)N[C@@H](Cc2ccc(C(=O)O)cc2)C(=O)N[C@@H](Cc2ccc(-c3ccccc3)cc2)C(=O)N[C@@H](Cc2ccc(C(=O)O)cc2)C(=O)N[C@@H](CCCN)C(=O)N[C@H](CC(C)C)C(=O)N[C@@H](CCN)C(=O)N[C@@H](CC2CCCCC2)C(=O)N[C@@H](C(C)(C)O)C(=O)N[C@@H](Cc2cnc[nH]2)C(=O)N1)C(N)=O [Compound 1862] ({CH2CO}-[Dap][Phe(4-COOH)]D[Phe(3-Me)][Phe(4-COOH)][Bip][Phe(4-COOH)][Orn][dL][Dab][Cha][Val(3-OH)]HC[Dab][Pra]-NH2; thioether N-14) — within 1.5-fold, 7.4 nM
- CCC(C)[C@@H]1NC(=O)[C@H](Cc2ccc(-c3ccccc3)cc2)NC(=O)[C@H](C(C)C)NC(=O)[C@H](Cc2cccc(C)c2C)NC(=O)[C@H](CC(=O)O)NC(=O)[C@H](Cc2ccc(OCC(=O)O)cc2)NC(=O)[C@H](CN)NC(=O)CSC[C@@H](C(=O)N[C@@H](C)C(N)=O)NC(=O)[C@H]([C@@H](C)O)NC(=O)[C@H](C(C)C)NC(=O)[C@H](CC2CCCCC2)NC(=O)[C@H](CCN)NC(=O)[C@@H](CC(C)C)NC(=O)[C@H](CCCN)NC1=O (stereo partly drawn) [Compound 2242] — within 1.5-fold, 10.3 nM
